Like-named read-outs stand apart in the source and are kept apart here. Ends that are not written are not given here.
Legend:
EGF-RK = EGF-RK (Homo sapiens, UniProt P00533); settings: cited from earlier work
[1] = target: EGF-receptor kinase (EGF-RK) (Homo sapiens, UniProt P00533); settings: for Optical layer thickness: PGT 10 μg/50 μl, EGF-RK 1 Unit/50 μl, EGF-RK buffer with Brij 35
Protocol: The quantity depends mainly on the volumes which are still to be pipetted, the buffer being intended to make the volume of the phosphorylation assay up to the total of 100 μl.
Then 10 μl of 10% (v/v) DMSO solution are added, or if a substance is to be tested for possible enzyme-modulating properties, 10 μl of a test substance, i.e. a possible inhibitor or activator, dissolved in 10% (v/v) of DMSO, are pipetted in.
If an enzymatic reaction is to take place, the enzyme is added at this stage.
Then the substrate is added. The amounts of the substrates Poly-(Glu, Tyr) 4:1, (SEQ ID NO.:2) M-2165 and (SEQ ID NO.:3) Raytide™ EL used are specified in each case.
The reaction of phosphorylation is started here by the addition of 10 μl of the 1 mM ATP solution.
The incubation time is 30 minutes at +30° C., for example.
After the end of the incubation period, 20 μl of antibody solution (1.6.) are pipetted in, for example. The receptor, in this case the antibody, is used in excess. The amount which corresponds to an excess can very easily be determined by anyone skilled in the art by means of experiments on binding to a sensor surface to which a substance with a receptor binding site is coupled, with increasing amounts of receptor. In the case of reactions of phosphorylation, increasing amounts of receptor are used with a constant amount of substrate and kinase.
The incubation time with the antibody may be, for example, 30 minutes at ambient temperature.
After the end of the incubation period 50 μl of incubation mixture are taken and pipetted into the prepared measuring cell with the sensor to whose surface is coupled a substance with a receptor binding site.
The layer thickness of the sensor is measured, for example, by Reflectometric Interference Spectroscopy (RIfS) using a SPEKOL 1100 simultaneous spectral photometer made by Messrs Zeiss Jena, modified according to Schmitt et al. 1997.
The receptor (in this case the antibody) is used in excess, so that even if there is a total enzymatic reaction (in this case phosphorylation) of the substrate at least a slight binding signal will still be obtained by the binding of the receptor (antibody) to the sensor surface.
The reaction of phosphorylation is started by the addition of ATP.
At the start of the experiment a control and a complete phosphorylation without the addition of inhibitor are carried out.

[2] = Layer thickness formation (binding) on the phospho-tyrosine-diamino-PEG 2000 sensor surface, RIfS; settings: for Optical layer thickness (binding) / Optical layer thickness (non-specific binding): EGF-RK buffer
Protocol: (§1) A conventional aminodextrane (AMD) sensor or a diamino PEG 2000 sensor is used (e.g. Schütz A., 2000; a) Piehler J., et al., 1996; Universität Tübingen, Inst. f. Physikalische and Theoretische Chemie, Germany.)
(§2) 20 μl aliquots of the final solution are immediately added drop by drop to the sensor surface which is about 1 cm^2 in size, and incubated for 8 hours under DMF chamber saturation. Then the sensor is rinsed with DMF and dried in the air.

[3] = Layer thickness formation (binding) on the phospho-tyrosine-AMD sensor surface, RIfS; settings: for Optical layer thickness (increase): Hepes buffer pH 7.40, Raytide EL or antibody 1.0 μg/50 μl, kinase 1 Unit/50 μl
Protocol: as §1, §2
The buffer used is p60c-src-kinase buffer, pH=7.40, with the final concentrations of 50 mM of Hepes and 30 mM of magnesium chloride in the incubation mixture.
The layer thickness formation of p60c-src-kinase (1 Unit/50 μl) in the presence of Brij 35 is investigated. […] Increasing concentrations of Brij 35 (% v/v) are added to the buffer.
Use of alternative substrates, kinase and sensors in a process according to the invention. […] The buffer used is Hepes buffer pH=7.40 with 50 mM of Hepes and 30 mM of magnesium chloride. The buffer contains 0.5% v/v mercaptoethanol, 0.05% v/v Brij 35 and 10 μg/50 μl albumin.
First, the antibody, then the kinase and the substrate are measured on their own in order to be able to evaluate any non-specific binding.

[4] = Table 8: EGF-RK buffer with Brij 35, substrate 10 μg/50 μl, EGF-RK 0.1 Unit/50 μl, EGF 0.5 μg/50 μl

EGF-receptor kinase (EGF-RK), sequence (P00533 25-1210): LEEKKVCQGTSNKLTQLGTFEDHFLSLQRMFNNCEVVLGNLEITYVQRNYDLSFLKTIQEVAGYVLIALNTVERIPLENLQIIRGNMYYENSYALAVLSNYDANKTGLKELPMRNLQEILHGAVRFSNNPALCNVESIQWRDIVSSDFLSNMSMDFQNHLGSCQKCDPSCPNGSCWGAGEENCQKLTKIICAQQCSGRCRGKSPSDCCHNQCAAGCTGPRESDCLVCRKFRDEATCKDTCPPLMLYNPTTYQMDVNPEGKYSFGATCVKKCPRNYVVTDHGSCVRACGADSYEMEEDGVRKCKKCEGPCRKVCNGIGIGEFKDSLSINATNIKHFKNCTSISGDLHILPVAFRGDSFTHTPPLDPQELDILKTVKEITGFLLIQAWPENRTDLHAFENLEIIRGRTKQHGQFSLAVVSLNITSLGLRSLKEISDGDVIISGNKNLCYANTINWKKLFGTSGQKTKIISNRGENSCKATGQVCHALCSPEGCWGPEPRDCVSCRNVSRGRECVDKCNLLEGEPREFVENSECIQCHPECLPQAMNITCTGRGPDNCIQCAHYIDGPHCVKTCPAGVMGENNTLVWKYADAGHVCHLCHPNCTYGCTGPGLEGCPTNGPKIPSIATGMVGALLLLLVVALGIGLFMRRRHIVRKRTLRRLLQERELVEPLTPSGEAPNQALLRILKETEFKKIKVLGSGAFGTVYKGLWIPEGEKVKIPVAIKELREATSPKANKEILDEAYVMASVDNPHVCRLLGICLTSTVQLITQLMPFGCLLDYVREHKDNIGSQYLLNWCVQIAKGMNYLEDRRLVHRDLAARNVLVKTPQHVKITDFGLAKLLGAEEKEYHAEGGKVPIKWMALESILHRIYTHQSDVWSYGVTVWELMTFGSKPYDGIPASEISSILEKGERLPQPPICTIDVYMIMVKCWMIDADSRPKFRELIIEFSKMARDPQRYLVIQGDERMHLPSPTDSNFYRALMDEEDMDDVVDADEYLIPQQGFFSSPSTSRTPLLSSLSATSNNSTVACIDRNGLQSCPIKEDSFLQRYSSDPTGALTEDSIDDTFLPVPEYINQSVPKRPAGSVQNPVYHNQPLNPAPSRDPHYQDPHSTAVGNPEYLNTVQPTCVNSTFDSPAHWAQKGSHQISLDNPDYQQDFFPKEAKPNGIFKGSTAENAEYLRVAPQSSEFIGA
EGF-RK, sequence (P00533 25-1210): as above

O=CN/C=C/c1cc(O)ccc1O [Erbstatin]
Inhibitor strength described in the literature (EGF-RK): weak inhibitor

COC(=O)/C=C/c1cc(O)ccc1O [erbstatin analogue, Erbstatin Analogue]
Optical layer thickness ([1]; 10^-3M inhibitor): 1.170 nm | Optical layer thickness ([1]; 10^-4M inhibitor): 0.728 nm | Optical layer thickness ([1]; 10^-5M inhibitor): 0.702 nm | Optical layer thickness ([1]; 10^-6M inhibitor): 0.442 nm | Optical layer thickness ([1]; 10^-7M inhibitor): 0.489 nm | Optical layer thickness ([1]; 10^-8M inhibitor): 0.526 nm | Inhibition of phosphorylation ([1]; up to 10^-3M): incomplete even at higher concentrations

Ac-Ile-Tyr-Gly-Glu-Phe-NH2 (Ac-IYGEF-NH2; also: phosphorylated, site not given here) [M-2165, Oligopeptide kinase substrate, Messrs; Bachem]
Optical layer thickness, component on its own ([2]; Table 13 a: Hepes buffer pH 7.40, 0.5% mercaptoethanol, 0.05% Brij 35, albumin 10 μg/50 μl, M-2165 10 μg/50 μl, p60c-src-kinase 2 Units/50 μl): 0.285 nm | Optical layer thickness, component on its own ([3]; Table 13: Hepes buffer pH 7.40, 0.5% mercaptoethanol, 0.05% Brij 35, albumin 10 μg/50 μl, M-2165 10 μg/50 μl, p60c-src-kinase 4 Units/50 μl): 0.230 nm

EGF: Epidermal Growth Factor, activator for phosphorylation with EGF-RK
Optical layer thickness (binding) ([2]; EGF 0.5 Units + Brij 35 (0.01% v/v)): 0.320 nm | Optical layer thickness (binding) ([2]; EGF 0.5 Units, no Brij 35): 0.814 nm | Optical layer thickness (binding) ([2]; EGF 1.0 Units + Brij 35 (0.01% v/v)): 0.484 nm | Optical layer thickness (binding) ([2]; EGF 1.0 Units, no Brij 35): 0.833 nm | Optical layer thickness, component on its own [2, 4]: 0.355 nm

Lys-Lys-Lys-Gly-Pro-Trp-Leu-Glu-Glu-Glu-Glu-Glu-Ala-Tyr-Gly-Trp-Leu-Asp-Phe (KKKGPWLEEEEEAYGWLDF; also: phosphorylated modified substrate, site not given here) [Raytide ™ EL, Protein-tyrosine-kinase substrate, Messrs; Calbiochem]
Optical layer thickness, component on its own ([2]; Table 12: EGF-RK buffer with Brij 35, Raytide EL 2 μg/50 μl, EGF-RK 0.5 Units/50 μl): 0.127 nm | Optical layer thickness (increase) ([3]; with 0.001% Brij 35 (v/v)): 0.067 nm | Optical layer thickness (increase) ([3]; with 0.002% Brij 35 (v/v)): 0.083 nm | Optical layer thickness (increase) ([3]; with 0.01% Brij 35 (v/v)): 0.000 nm | Optical layer thickness (increase) ([3]; with 0.02% Brij 35 (v/v)): 0.000 nm | Optical layer thickness (increase) ([3]; with 0.1% Brij 35 (v/v)): 0.000 nm | Optical layer thickness (increase) ([3]; with 0.2% Brij 35 (v/v)): 0.000 nm | Optical layer thickness (increase) ([3]; without Brij 35): 0.169 nm

Poly-(Glu, Tyr) 4:1 [PGT]
Optical layer thickness (non-specific binding) ([2]; 0.5 μg PGT): 0.064 nm | Optical layer thickness (non-specific binding) ([2]; 1.0 μg PGT): 0.026 nm | Optical layer thickness (non-specific binding) ([2]; 2.0 μg PGT): 0.000 nm | Optical layer thickness (non-specific binding) ([2]; 5.0 μg PGT): 0.052 nm | Optical layer thickness (non-specific binding) ([2]; 10 μg PGT): 0.065 nm | Optical layer thickness (non-specific binding) ([2]; 20 μg PGT): 0.054 nm | Optical layer thickness (non-specific binding) ([2]; 50 μg PGT): 0.113 nm | Optical layer thickness (non-specific binding) ([2]; 100 μg PGT): 0.084 nm | Optical layer thickness, component on its own [2, 4]: 0 nm | Optical layer thickness, component on its own ([2]; Table 9: EGF-RK buffer with Brij 35, substrate 10 μg/50 μl, EGF-RK 2 Units/50 μl): 0 nm

Source: US20050026219A1, “Process for label-free measurement of modified substrate” (Boehringer Ingelheim Pharma GmbH & Co. KG, priority 2001, published 2005)
